Calls of active or inactive are those of the source. The calls are words filed in the database; no cut-off is given here.
Key:
NCI-H460 [1] = test: Cell cycle arrest in human NCI-H460 cells assessed as accumulation at G2 phase at 8 uM after 48 hrs by Rnase A/propidium iodide staining-based flow cytometry (reference value: 33.9%); type: functional
NCI-H460 [2] = test: Cell cycle arrest in human NCI-H460 cells assessed as accumulation at S phase at 8 uM after 48 hrs by Rnase A/propidium iodide staining-based flow cytometry (reference value: 19.41%); type: functional
NCI-H460 [3] = test: Induction of apoptosis in human NCI-H460 cells assessed as caspase-3 activation after 24 hrs by qRT-PCR analysis; type: functional, cell-based
NCI-H460 [4] = test: Cell cycle arrest in human NCI-H460 cells assessed as accumulation at G1 phase at 5 uM after 48 hrs by Rnase A/propidium iodide staining-based flow cytometry (reference value: 46.69%); type: functional
HCT-116 = test: cells; conditions: Homo sapiens, HCT-116, 48 h
Description: Cytotoxicity against human HCT116 cells after 48 hrs by MTT assay

NCI-H460 [5] = test: Cell cycle arrest in human NCI-H460 cells assessed as accumulation at G1 phase at 8 uM after 48 hrs by Rnase A/propidium iodide staining-based flow cytometry (reference value: 46.69%); type: functional
NCI-H460 [6] = test: Induction of apoptosis in human NCI-H460 cells assessed as viable cells after 24 hrs by Annexin V/propidium iodide staining-based flow cytometry; type: functional, cell-based
NCI-H460 [7] = test: Induction of apoptosis in human NCI-H460 cells assessed as late apoptotic cells at 8 uM by Annexin V/propidium iodide staining-based flow cytometry; type: functional, cell-based; conditions: TDE = time-dependent effect
NCI-H460 [8] = test: Induction of apoptosis in human NCI-H460 cells assessed as early apoptotic cells at 10 uM after 24 hrs by Annexin V/propidium iodide staining-based flow cytometry (reference value: 6.8%); type: functional
NCI-H460 [9] = test: Induction of apoptosis in human NCI-H460 cells assessed as viable cells at 8 uM after 12 hrs by Annexin V/propidium iodide staining-based flow cytometry (reference value: 72.2%); type: functional; conditions: NCI-H460, 12 h, read-out: Activity
NCI-H460 [10] = test: Induction of apoptosis in human NCI-H460 cells assessed as upregulation of TP53 mRNA expression after 24 hrs by qRT-PCR analysis; type: functional, cell-based
A549 = test: cells; conditions: Homo sapiens, A549, 48 h
Description: Cytotoxicity against human A549 cells after 48 hrs by MTT assay

NCI-H460 [11] = test: Cell cycle arrest in human NCI-H460 cells assessed as accumulation at S phase at 8 uM after 24 hrs by Rnase A/propidium iodide staining-based flow cytometry (reference value: 19.41%); type: functional
NCI-H460 [12] = test: Cell cycle arrest in human NCI-H460 cells assessed as accumulation at S phase at 20 uM after 48 hrs by Rnase A/propidium iodide staining-based flow cytometry (reference value: 19.41%); type: functional
NCI-H460 [13] = test: Induction of apoptosis in human NCI-H460 cells assessed as karyopyknosis and chromatin condensation at 5 to 20 uM after 24 hrs by Hoechst 33258 staining-based fluorescence microscopy relative to control; type: functional, cell-based
NCI-H460 [14] = test: Induction of apoptosis in human NCI-H460 cells assessed as change in mitochondrial membrane potential at 5 to 20 uM after 24 hrs by JC-1 staining-based fluorescence microscopy relative to control; type: functional, cell-based
NCI-H460 [15] = test: Induction of apoptosis in human NCI-H460 cells assessed as late apoptotic cells at 8 uM after 24 hrs by Annexin V/propidium iodide staining-based flow cytometry (reference value: 14.1%); type: functional
NCI-H460 [16] = test: Induction of apoptosis in human NCI-H460 cells assessed as necrotic cells at 8 uM after 12 hrs by Annexin V/propidium iodide staining-based flow cytometry (reference value: 6.9%); type: functional
MGC-803 = test: Cytotoxicity against human MGC803 cells after 48 hrs by MTT assay; type: functional, cell-based; conditions: MGC-803, 48 h
NCI-H460 [17] = test: Induction of apoptosis in human NCI-H460 cells assessed as early apoptotic cells at 5 to 20 uM after 24 hrs by Annexin V/propidium iodide staining-based flow cytometry relative to control; type: functional, cell-based
HeLa = test: cells; conditions: Homo sapiens, 48 h
Description: Cytotoxicity against human HeLa cells after 48 hrs by MTT assay

NCI-H460 [18] = test: Induction of apoptosis in human NCI-H460 cells assessed as karyopyknosis and chromatin condensation after 24 hrs by Hoechst 33258 staining-based fluorescence microscopy relative to control; type: functional, cell-based
NCI-H460 [19] = test: Induction of apoptosis in human NCI-H460 cells assessed as change in mitochondrial membrane potential at 8 uM by JC-1 staining-based fluorescence microscopy relative to control; type: functional, cell-based; conditions: TDE = time-dependent effect
NCI-H460 [20] = test: Induction of apoptosis in human NCI-H460 cells assessed as necrotic cells at 8 uM after 48 hrs by Annexin V/propidium iodide staining-based flow cytometry (reference value: 6.9%); type: functional
NCI-H460 [21] = test: Induction of apoptosis in human NCI-H460 cells assessed as downregulation of Bcl-2 mRNA expression after 24 hrs by qRT-PCR analysis; type: functional, cell-based
NCI-H460 [22] = test: Induction of apoptosis in human NCI-H460 cells assessed as early apoptotic cells at 8 uM after 12 hrs by Annexin V/propidium iodide staining-based flow cytometry (reference value: 6.8%); type: functional
NCI-H460 [23] = test: Cell cycle arrest in human NCI-H460 cells assessed as accumulation at G2 phase at 5 uM after 48 hrs by Rnase A/propidium iodide staining-based flow cytometry (reference value: 33.9%); type: functional
NCI-H460 [24] = test: Induction of apoptosis in human NCI-H460 cells assessed as necrotic cells at 8 uM after 24 hrs by Annexin V/propidium iodide staining-based flow cytometry (reference value: 6.9%); type: functional
NCI-H460 [25] = test: Cytotoxicity against human NCI-H460 cells after 48 hrs by MTT assay; type: functional, cell-based; conditions: NCI-H460, 48 h
NCI-H460 [26] = test: Cell cycle arrest in human NCI-H460 cells assessed as accumulation at S phase at 8 uM after 12 hrs by Rnase A/propidium iodide staining-based flow cytometry (reference value: 19.41%); type: functional
NCI-H460 [27] = test: Induction of apoptosis in human NCI-H460 cells assessed as upregulation of CAMK1 mRNA expression after 24 hrs by qRT-PCR analysis; type: functional, cell-based
NCI-H460 [28] = test: Induction of apoptosis in human NCI-H460 cells assessed as karyopyknosis and chromatin condensation at 8 uM after 12 to 48 hrs by Hoechst 33258 staining-based fluorescence microscopy relative to control; type: functional, cell-based
NCI-H460 [29] = test: Induction of apoptosis in human NCI-H460 cells assessed as viable cells at 8 uM after 48 hrs by Annexin V/propidium iodide staining-based flow cytometry (reference value: 72.2%); type: functional; conditions: NCI-H460, 48 h, read-out: Activity
NCI-H460 [30] = test: Induction of apoptosis in human NCI-H460 cells assessed as late apoptotic cells at 10 uM after 24 hrs by Annexin V/propidium iodide staining-based flow cytometry (reference value: 14.1%); type: functional
NCI-H460 [31] = test: Induction of apoptosis in human NCI-H460 cells assessed as early apoptotic cells after 24 hrs by Annexin V/propidium iodide staining-based flow cytometry; type: functional, cell-based
HepG2 = test: cells; conditions: Homo sapiens, HepG2, 48 h
Description: Cytotoxicity against human HepG2 cells after 48 hrs by MTT assay

NCI-H460 [32] = test: Cell cycle arrest in human NCI-H460 cells assessed as accumulation at G1 phase at 8 uM after 24 hrs by Rnase A/propidium iodide staining-based flow cytometry (reference value: 46.69%); type: functional

SMILES | Activity (NCI-H460 [1]) | Activity (NCI-H460 [2]) | Activity (NCI-H460 [3]) | Activity (NCI-H460 [4]) | IC50 (HCT-116) | Activity (NCI-H460 [5]) | Activity (NCI-H460 [6]) | Activity (NCI-H460 [7]) | Activity (NCI-H460 [8]) | viability at 8 µM (NCI-H460 [9]) | Activity (NCI-H460 [10]) | IC50 (A549) | Activity (NCI-H460 [11]) | Activity (NCI-H460 [12]) | Activity (NCI-H460 [13]) | Activity (NCI-H460 [14]) | Activity (NCI-H460 [15]) | Activity (NCI-H460 [16]) | IC50 (MGC-803) | Activity (NCI-H460 [17]) | also measured
CCOP(=O)(OCC)C(NC(=O)C(C)Oc1ccc2c(c1O)C(=O)c1ccccc1C2=O)c1cccc2ccccc12 (stereo unspecified) | 31.5% | 0.41% | Dose-dependent effect | 57.2% | 40 µM | 68.09% | Dose-dependent effect | tde | 35.7% | 70.9% | Dose-dependent effect | 15.9 µM | 1.11% | 17.06% | Active | Active | 13.5% | 0.9% | 3.77 µM | Active | IC50 (HeLa): 15 µM; Activity (NCI-H460 [18]): Dose-dependent effect; Activity (NCI-H460 [19]): tde; Activity (NCI-H460 [20]): 3.7%; Activity (NCI-H460 [21]): Dose-dependent effect; Activity (NCI-H460 [22]): 19.9%; Activity (NCI-H460 [23]): 25.78%; Activity (NCI-H460 [24]): 2.4%; IC50 (NCI-H460 [25]): 6.83 µM; Activity (NCI-H460 [26]): 0.11%; Activity (NCI-H460 [27]): Dose-dependent effect; Activity (NCI-H460 [28]): Active; viability at 8 µM (NCI-H460 [29]): 26.6%; Activity (NCI-H460 [30]): 18.6%; Activity (NCI-H460 [31]): Dose-dependent effect; IC50 (HepG2): 40.5 µM; Activity (NCI-H460 [32]): 66.33%
CCOP(=O)(OCC)C(NC(=O)C(C)Oc1ccc2c(c1O)C(=O)c1ccccc1C2=O)c1ccccc1OC (stereo unspecified) | 22.97% | 8.87% | Dose-dependent effect | 56.85% | 10.5 µM | 68.16% | Dose-dependent effect | tde | 32.4% | 71.9% | Dose-dependent effect | 12.3 µM | 13.09% | 11.81% | Active | Active | 11.1% | 0.7% | 10.1 µM | Active | IC50 (HeLa): 28.2 µM; Activity (NCI-H460 [18]): Dose-dependent effect; Activity (NCI-H460 [19]): tde; Activity (NCI-H460 [20]): 3.2%; Activity (NCI-H460 [21]): Dose-dependent effect; Activity (NCI-H460 [22]): 21.9%; Activity (NCI-H460 [23]): 34.41%; Activity (NCI-H460 [24]): 2.5%; IC50 (NCI-H460 [25]): 9.8 µM; Activity (NCI-H460 [26]): 15.62%; Activity (NCI-H460 [27]): Dose-dependent effect; Activity (NCI-H460 [28]): Active; viability at 8 µM (NCI-H460 [29]): 28.2%; Activity (NCI-H460 [30]): 17.8%; Activity (NCI-H460 [31]): Dose-dependent effect; IC50 (HepG2): 88.2 µM; Activity (NCI-H460 [32]): 64.92%
CCOP(=O)(OCC)C(NC(=O)C(C)Oc1ccc2c(c1O)C(=O)c1ccccc1C2=O)c1ccccc1F (stereo unspecified) | 23.61% | 10.87% | Dose-dependent effect | 64.52% | 13.3 µM | 65.52% | Dose-dependent effect | tde | 56.3% | 61.3% | Dose-dependent effect | 6.76 µM | 16.3% | 11.25% | Active | Active | 13% | 0.5% | 18.8 µM | Active | IC50 (HeLa): 21.1 µM; Activity (NCI-H460 [18]): Dose-dependent effect; Activity (NCI-H460 [19]): tde; Activity (NCI-H460 [20]): 3.2%; Activity (NCI-H460 [21]): Dose-dependent effect; Activity (NCI-H460 [22]): 30.3%; Activity (NCI-H460 [23]): 23.14%; Activity (NCI-H460 [24]): 1.9%; IC50 (NCI-H460 [25]): 3.8 µM; Activity (NCI-H460 [26]): 14.65%; Activity (NCI-H460 [27]): Dose-dependent effect; Activity (NCI-H460 [28]): Active; viability at 8 µM (NCI-H460 [29]): 31.1%; Activity (NCI-H460 [30]): 6.8%; Activity (NCI-H460 [31]): Dose-dependent effect; IC50 (HepG2): 21 µM; Activity (NCI-H460 [32]): 60.05%

From ChEMBL document CHEMBL3297657, “Synthesis and antitumor activities of novel α-aminophosphonate derivatives containing an alizarin moiety” (Eur J Med Chem, 2014)
